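Tested at 5 concentrations; 48 h exposure; 96-well plates; endpoints linearly interpolated, else capped at highest concentration. GI50 is the concentration that inhibits growth by half. The concentration for full growth arrest is given as TGI.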
Columns and labels:
Assay in all cases: inhibition of tumour cell growth, NCI panel, 48 h
M14 melanoma = tested on: M14 melanoma
SK-OV-3 ovarian = tested on: SK-OV-3 ovarian
IGROV1 ovarian = tested on: IGROV1 ovarian
NCI/ADR-RES ovarian = tested on: NCI/ADR-RES ovarian
MDA-MB-435 = tested on: MDA-MB-435
NCI-H226 lung = tested on: NCI-H226 lung
SN12C renal = tested on: SN12C renal
SW-620 colon = tested on: SW-620 colon
SNB-19 CNS = tested on: SNB-19 CNS
SF-539 CNS = tested on: SF-539 CNS
U251 CNS = tested on: U251 CNS
MALME-3M melanoma = tested on: MALME-3M melanoma
RXF 393 renal = tested on: RXF 393 renal
SK-MEL-5 melanoma = tested on: SK-MEL-5 melanoma
HT29 colon = tested on: HT29 colon
K-562 leukemia = tested on: K-562 leukemia
KM12 colon = tested on: KM12 colon
CAKI-1 renal = tested on: CAKI-1 renal
DU-145 prostate = tested on: DU-145 prostate
A498 renal = tested on: A498 renal
TK-10 renal = tested on: TK-10 renal
OVCAR-8 ovarian = tested on: OVCAR-8 ovarian
UACC-257 melanoma = tested on: UACC-257 melanoma
SNB-75 CNS = tested on: SNB-75 CNS
ACHN renal = tested on: ACHN renal
MDA-MB-231 breast = tested on: MDA-MB-231 breast
NCI-H460 lung = tested on: NCI-H460 lung
HCT-15 colon = tested on: HCT-15 colon
OVCAR-5 ovarian = tested on: OVCAR-5 ovarian
SK-MEL-2 melanoma = tested on: SK-MEL-2 melanoma
MCF7 breast = tested on: MCF7 breast
HCC-2998 colon = tested on: HCC-2998 colon
EKVX NSCLC = tested on: EKVX NSCLC
MOLT-4 leukemia = tested on: MOLT-4 leukemia
HOP-92 NSCLC = tested on: HOP-92 NSCLC
BT-549 breast = tested on: BT-549 breast
HCT-116 colon = tested on: HCT-116 colon
OVCAR-4 ovarian = tested on: OVCAR-4 ovarian
RPMI-8226 leukemia = tested on: RPMI-8226 leukemia
OVCAR-3 ovarian = tested on: OVCAR-3 ovarian
HOP-62 NSCLC = tested on: HOP-62 NSCLC
T-47D breast = tested on: T-47D breast
NCI-H23 lung = tested on: NCI-H23 lung
SF-295 CNS = tested on: SF-295 CNS
HS 578T breast = tested on: HS 578T breast
SK-MEL-28 melanoma = tested on: SK-MEL-28 melanoma
SF-268 CNS = tested on: SF-268 CNS
A549 NSCLC = tested on: A549 NSCLC
UO-31 renal = tested on: UO-31 renal
SR leukemia = tested on: SR leukemia
LOX IMVI melanoma = tested on: LOX IMVI melanoma
COLO 205 colon = tested on: COLO 205 colon
786-0 renal = tested on: 786-0 renal
PC-3 prostate = tested on: PC-3 prostate
CCRF-CEM leukemia = tested on: CCRF-CEM leukemia
UACC-62 melanoma = tested on: UACC-62 melanoma
HL-60(TB) leukemia = tested on: HL-60(TB) leukemia
NCI-H522 lung = tested on: NCI-H522 lung

## O=C(Nc1ccc2c(c1)OCO2)C(=O)c1c[nH]c2cc(F)ccc12
M14 melanoma
  GI50: 0.466 µM
  TGI: 10.9 µM
SK-OV-3 ovarian
  GI50: 4.24 µM
  TGI: 15.2 µM
IGROV1 ovarian
  GI50: 12.6 µM
  TGI: > 100 µM
NCI/ADR-RES ovarian
  GI50: 1.47 µM
  TGI: 22.9 µM
MDA-MB-435
  GI50: 0.854 µM
  TGI: > 100 µM
NCI-H226 lung
  GI50: 3.74 µM
  TGI: 16.8 µM
SN12C renal
  GI50: 38.3 µM
  TGI: > 100 µM
SW-620 colon
  GI50: 2.07 µM
  TGI: > 100 µM
SNB-19 CNS
  GI50: 7.74 µM
  TGI: 77.3 µM
SF-539 CNS
  GI50: 3.23 µM
  TGI: 36.3 µM
U251 CNS
  GI50: 9.17 µM
  TGI: 51.7 µM
MALME-3M melanoma
  GI50: 3 µM
  TGI: 8.61 µM
RXF 393 renal
  GI50: 3.65 µM
  TGI: 11 µM
SK-MEL-5 melanoma
  GI50: 0.726 µM
  TGI: 10.6 µM
HT29 colon
  GI50: 8.04 µM
  TGI: > 100 µM
K-562 leukemia
  GI50: 0.6 µM
  TGI: 20.8 µM
KM12 colon
  GI50: 0.389 µM
  TGI: 13.7 µM
CAKI-1 renal
  GI50: 0.677 µM
  TGI: > 100 µM
DU-145 prostate
  GI50: 3.52 µM
  TGI: 44.6 µM
A498 renal
  GI50: 2.72 µM
  TGI: 16.7 µM
TK-10 renal
  GI50: 7.04 µM
  TGI: 25.4 µM
OVCAR-8 ovarian
  GI50: 3.89 µM
  TGI: 23.6 µM
UACC-257 melanoma
  GI50: 1.7 µM
  TGI: 15.5 µM
SNB-75 CNS
  GI50: 2.6 µM
  TGI: 12.1 µM
ACHN renal
  GI50: 0.547 µM
  TGI: 20.4 µM
MDA-MB-231 breast
  GI50: 2.12 µM
  TGI: 25.4 µM
NCI-H460 lung
  GI50: 3.26 µM
  TGI: > 100 µM
HCT-15 colon
  GI50: 0.67 µM
  TGI: > 100 µM
OVCAR-5 ovarian
  GI50: 17.9 µM
  TGI: > 100 µM
SK-MEL-2 melanoma
  GI50: 5.19 µM
  TGI: 31.1 µM
MCF7 breast
  GI50: 6.91 µM
  TGI: > 100 µM
HCC-2998 colon
  GI50: 0.688 µM
  TGI: > 100 µM
EKVX NSCLC
  GI50: 13.3 µM
  TGI: > 100 µM
MOLT-4 leukemia
  GI50: 11.7 µM
  TGI: 69.2 µM
HOP-92 NSCLC
  GI50: 1.12 µM
  TGI: 5.6 µM
BT-549 breast
  GI50: 9.35 µM
  TGI: 98.7 µM
HCT-116 colon
  GI50: 11.2 µM
  TGI: > 100 µM
OVCAR-4 ovarian
  GI50: 1.9 µM
  TGI: > 100 µM
RPMI-8226 leukemia
  GI50: 50 µM
  TGI: > 100 µM
OVCAR-3 ovarian
  GI50: 4.67 µM
  TGI: 19 µM
HOP-62 NSCLC
  GI50: 5.11 µM
  TGI: 21.9 µM
T-47D breast
  GI50: 1.75 µM
  TGI: > 100 µM
NCI-H23 lung
  GI50: 13.9 µM
  TGI: 55.4 µM
SF-295 CNS
  GI50: 2.19 µM
  TGI: 21.5 µM
HS 578T breast
  GI50: 2.63 µM
  TGI: 62.7 µM
SK-MEL-28 melanoma
  GI50: 2.05 µM
  TGI: 5.54 µM
SF-268 CNS
  GI50: 4.52 µM
  TGI: 22.1 µM
A549 NSCLC
  GI50: 2.81 µM
  TGI: > 100 µM
UO-31 renal
  GI50: 4.42 µM
  TGI: 44.9 µM
SR leukemia
  GI50: 2.85 µM
  TGI: 19.6 µM
LOX IMVI melanoma
  GI50: 0.476 µM
  TGI: > 100 µM
COLO 205 colon
  GI50: 13.5 µM
  TGI: > 100 µM
786-0 renal
  GI50: 4.39 µM
  TGI: 23 µM
PC-3 prostate
  GI50: 3.33 µM
  TGI: > 100 µM
CCRF-CEM leukemia
  GI50: 5.33 µM
  TGI: > 100 µM
UACC-62 melanoma
  GI50: 0.238 µM
  TGI: 1.58 µM
HL-60(TB) leukemia
  GI50: 4.51 µM
  TGI: > 100 µM

## COc1cc(/C=C\c2cc(/C=C\c3ccc(O)c(OC)c3)n(C(=O)CNc3ccc(Cl)cc3)n2)ccc1O
M14 melanoma
  GI50: 2.89 µM
  TGI: 15.5 µM
SK-OV-3 ovarian
  GI50: 3.65 µM
  TGI: 13 µM
IGROV1 ovarian
  GI50: 2.84 µM
  TGI: 14.3 µM
NCI/ADR-RES ovarian
  GI50: 3.75 µM
  TGI: 41.8 µM
MDA-MB-435
  GI50: 2.52 µM
  TGI: 23.4 µM
NCI-H226 lung
  GI50: 4.39 µM
  TGI: 21.6 µM
SN12C renal
  GI50: 3.18 µM
  TGI: 20.6 µM
SW-620 colon
  GI50: 4.75 µM
  TGI: 23.2 µM
SNB-19 CNS
  GI50: 3.18 µM
  TGI: 14.1 µM
U251 CNS
  GI50: 2.94 µM
  TGI: 11.8 µM
MALME-3M melanoma
  GI50: 1.6 µM
  TGI: 12 µM
RXF 393 renal
  GI50: 2.1 µM
  TGI: 4.67 µM
SK-MEL-5 melanoma
  GI50: 3.24 µM
  TGI: 11.3 µM
HT29 colon
  GI50: 3 µM
  TGI: 9.27 µM
K-562 leukemia
  GI50: 2.59 µM
  TGI: 12.3 µM
KM12 colon
  GI50: 2.64 µM
  TGI: 13.1 µM
CAKI-1 renal
  GI50: 3.36 µM
  TGI: 43.6 µM
DU-145 prostate
  GI50: 3.25 µM
  TGI: 12.3 µM
A498 renal
  GI50: 7.64 µM
  TGI: 20 µM
TK-10 renal
  GI50: 5.52 µM
  TGI: 18.8 µM
OVCAR-8 ovarian
  GI50: 3.63 µM
  TGI: 13.9 µM
UACC-257 melanoma
  GI50: 5.17 µM
  TGI: 17.7 µM
SNB-75 CNS
  GI50: 2.84 µM
  TGI: 13 µM
ACHN renal
  GI50: 0.628 µM
  TGI: 14.9 µM
MDA-MB-231 breast
  GI50: 4.02 µM
  TGI: 45 µM
NCI-H460 lung
  GI50: 3.17 µM
  TGI: 12.5 µM
HCT-15 colon
  GI50: 2.54 µM
  TGI: 12.2 µM
OVCAR-5 ovarian
  GI50: 2.78 µM
  TGI: 25.4 µM
SK-MEL-2 melanoma
  GI50: 3.97 µM
  TGI: 18.8 µM
MCF7 breast
  GI50: 2.34 µM
  TGI: 11.9 µM
HCC-2998 colon
  GI50: 6.01 µM
  TGI: 18 µM
EKVX NSCLC
  GI50: 3.48 µM
  TGI: 14.5 µM
MOLT-4 leukemia
  GI50: 2.05 µM
  TGI: 15.6 µM
HOP-92 NSCLC
  GI50: 5.65 µM
  TGI: 24.2 µM
BT-549 breast
  GI50: 3 µM
  TGI: 47 µM
HCT-116 colon
  GI50: 2.9 µM
  TGI: 13.5 µM
OVCAR-4 ovarian
  GI50: 2.88 µM
  TGI: > 100 µM
RPMI-8226 leukemia
  GI50: 1.88 µM
  TGI: 6.36 µM
OVCAR-3 ovarian
  GI50: 2.46 µM
  TGI: 8.11 µM
HOP-62 NSCLC
  GI50: 4.14 µM
  TGI: 16.7 µM
T-47D breast
  GI50: 2.79 µM
  TGI: 16 µM
NCI-H23 lung
  GI50: 3.35 µM
  TGI: 15.8 µM
SF-295 CNS
  GI50: 6.07 µM
  TGI: 20.1 µM
NCI-H522 lung
  GI50: 1.51 µM
  TGI: 5.06 µM
HS 578T breast
  GI50: 4.36 µM
  TGI: > 100 µM
SK-MEL-28 melanoma
  GI50: 2.3 µM
  TGI: 11.6 µM
SF-268 CNS
  GI50: 2.49 µM
  TGI: 14.9 µM
A549 NSCLC
  GI50: 3.94 µM
  TGI: 16.5 µM
UO-31 renal
  GI50: 1.21 µM
  TGI: 8.42 µM
SR leukemia
  GI50: 0.341 µM
  TGI: 7.14 µM
LOX IMVI melanoma
  GI50: 2.17 µM
  TGI: 6.95 µM
COLO 205 colon
  GI50: 4.87 µM
  TGI: 18.3 µM
786-0 renal
  GI50: 3.03 µM
  TGI: 12.8 µM
PC-3 prostate
  GI50: 3.38 µM
  TGI: 47.9 µM
CCRF-CEM leukemia
  GI50: 1.49 µM
  TGI: 5.45 µM
UACC-62 melanoma
  GI50: 2.73 µM
  TGI: 9.2 µM
HL-60(TB) leukemia
  GI50: 2.07 µM
  TGI: 6.68 µM

Reference: PubChem BioAssay (NCI)
